Reference: publication PMC11915801, “Evolutionary trajectory of bacterial resistance to antibiotics and antimicrobial peptides in Escherichia coli” (mSystems, 2025)

Experiments:
Assay in all cases: microbe, parasite or virus in culture
Type in all cases: cell-based, Escherichia coli
E. coli K-12 MG1655 = conditions: for MIC of MG1655 under the pressure of the same drug, generation primary: broth microdilution (CLSI), primary MG1655 before passage; for MIC of MG1655 under the pressure of the same drug, generation 10: broth microdilution, line passaged in MH broth with sub-inhibitory drug, 12 h per passage, 37℃
Protocol: (§1) The broth microdilution method was used to measure the MIC values of antibiotics and peptides according to the Clinical and Laboratory Standards Institute guidelines. The MIC value is defined as the lowest drug concentration without visible bacteria.
Eight antibiotics and ten AMPs at the sub-inhibitory concentration were prepared. A 300-µL system, including 260 µL of MH broth, 30 µL of prepared drug, and 10 µL of bacterial culture, was used for resistance passages. After 12 h of incubation at 37℃ and 200 rpm, 10 µL of the above bacterial culture was added into the new sterile drug-containing broth. MIC values of bacterial culture were determined. The drug concentration was adjusted according to the MIC value change until the end of the 120 passages.

AMP120 (evolved MG1655) = conditions: for MIC values of evolved MG1655, strain AMP120: broth microdilution, ampicillin-evolved strain
Excerpt: (§2) To ensure the stable resistance evolution and inheritance of MG1655 under different drugs, we randomly selected three monoclonals from the evolved strains. The final antibiotic-evolved strains were designated as AMP120, AZI120, CHL80, CIP120, DOX120, KAN80, NIT70, and TMP30, while the final AMP-evolved strains were named COL120, Ind120, Omi120, Pex120, PGLA120, Pleu120, R8120, SAAP120, LI120, and SLAP120.
as §1

AZI120 (evolved MG1655) = conditions: broth microdilution; azithromycin-evolved strain
Excerpt: as §2, §1

CHL80 (evolved MG1655) = conditions: broth microdilution; chloramphenicol-evolved strain
Excerpt: as §2, §1

CIP120 (evolved MG1655) = conditions: broth microdilution; ciprofloxacin-evolved strain
Excerpt: as §2, §1

COL120 (evolved MG1655) = conditions: broth microdilution; colistin-evolved strain
Excerpt: as §2, §1

DOX120 (evolved MG1655) = conditions: broth microdilution; doxycycline-evolved strain
Excerpt: as §2, §1

KAN80 (evolved MG1655) = conditions: broth microdilution; kanamycin-evolved strain
Excerpt: as §2, §1

NIT70 (evolved MG1655) = conditions: broth microdilution; nitrofurantoin-evolved strain
Excerpt: as §2, §1

TMP30 (evolved MG1655) = conditions: broth microdilution; trimethoprim-evolved strain
Excerpt: as §2, §1

| Compound | MIC of MG1655 under the pressure of the same drug, generation 20 (E. coli K-12 MG1655; as E2) | MIC of MG1655 under the pressure of the same drug, generation 30 (E. coli K-12 MG1655; as E2) | MIC of MG1655 under the pressure of the same drug, generation 40 (E. coli K-12 MG1655; as E2) | MIC of MG1655 under the pressure of the same drug, generation 50 (E. coli K-12 MG1655; as E2) | MIC of MG1655 under the pressure of the same drug, generation 60 (E. coli K-12 MG1655; as E2) | MIC of MG1655 under the pressure of the same drug, generation 70 (E. coli K-12 MG1655; as E2) | MIC of MG1655 under the pressure of the same drug, generation 80 (E. coli K-12 MG1655; as E2) | MIC of MG1655 under the pressure of the same drug, generation primary (E. coli K-12 MG1655) | MIC of MG1655 under the pressure of the same drug, generation 10 (E. coli K-12 MG1655) | MIC values of evolved MG1655, strain AMP120 (AMP120 (evolved MG1655)) | MIC values of evolved MG1655, strain AZI120 (AZI120 (evolved MG1655)) | MIC values of evolved MG1655, strain CHL80 (CHL80 (evolved MG1655)) | MIC values of evolved MG1655, strain CIP120 (CIP120 (evolved MG1655)) | MIC values of evolved MG1655, strain COL120 (COL120 (evolved MG1655)) | MIC values of evolved MG1655, strain DOX120 (DOX120 (evolved MG1655)) | MIC values of evolved MG1655, strain KAN80 (KAN80 (evolved MG1655)) | MIC values of evolved MG1655, strain NIT70 (NIT70 (evolved MG1655)) | MIC values of evolved MG1655, strain TMP30 (TMP30 (evolved MG1655)) | further results |
| --- | --- | --- | --- | --- | --- | --- | --- | --- | --- | --- | --- | --- | --- | --- | --- | --- | --- | --- | --- |
| NC[C@H]1O[C@H](O[C@H]2[C@H](O)[C@@H](O[C@H]3O[C@H](CO)[C@@H](O)[C@H](N)[C@H]3O)[C@H](N)C[C@@H]2N)[C@H](O)[C@@H](O)[C@@H]1O [KAN, Kanamycin] | 32 mg/L | 64 mg/L | 64 mg/L | 128 mg/L | 256 mg/L | 256 mg/L | 512 mg/L | 2 mg/L | 16 mg/L | 1 mg/L | 4 mg/L | 2 mg/L | 4 mg/L | 4 mg/L | 2 mg/L | 512 mg/L | 4 mg/L | 4 mg/L | increase in MIC values after experimental evolution (E. coli K-12 MG1655; MG1655, sub-inhibitory drug in MH broth over 60 days, final vs primary MIC): 256 fold |
| AC-Dab-Ile-Dab-Ile-Dab-D-Phe-Leu-Dab-D-Val-Leu-Ala-NH2 [SLAP, SLAP-S25, short-linear AMP] | 8 mg/L | 8 mg/L | 8 mg/L | 16 mg/L | 16 mg/L | 16 mg/L | 32 mg/L | 4 mg/L | 4 mg/L | 1 mg/L | 32 mg/L | 2 mg/L | 2 mg/L | 8 mg/L | 2 mg/L | 2 mg/L | 2 mg/L | 4 mg/L | evolution of resistance in MG1655 (in words) (E. coli K-12 MG1655; MG1655, sub-inhibitory drug in MH broth over 60 days): marginal increase in resistance; MIC of MG1655 under the pressure of the same drug, generation 90 (E. coli K-12 MG1655; as E2, generation 90): 32 mg/L; MIC of MG1655 under the pressure of the same drug, generation 100 (E. coli K-12 MG1655; as E2, generation 100): 32 mg/L; MIC of MG1655 under the pressure of the same drug, generation 110 (E. coli K-12 MG1655; as E2, generation 110): 64 mg/L; MIC of MG1655 under the pressure of the same drug, generation 120 (E. coli K-12 MG1655; as E2, generation 120): 64 mg/L; collateral sensitivity of AMP120 (fold change of MIC vs wild-type MG1655) (AMP120 (evolved MG1655); MIC of AMP120 compared with MG1655): exceeding fourfold |
